Data reported in paper PMC4728427, “Mechanism of allosteric activation of TMEM16A/ANO1 channels by a commonly used chloride channel blocker” (British Journal of Pharmacology, 2016).

Biological target: T1, Mouse TMEM16A (Mus musculus, UniProt Q8BHY3)
T1 construct: expressed in transfected cells; host or cells: HEK-293T
T1 sequence (Q8BHY3 1-960): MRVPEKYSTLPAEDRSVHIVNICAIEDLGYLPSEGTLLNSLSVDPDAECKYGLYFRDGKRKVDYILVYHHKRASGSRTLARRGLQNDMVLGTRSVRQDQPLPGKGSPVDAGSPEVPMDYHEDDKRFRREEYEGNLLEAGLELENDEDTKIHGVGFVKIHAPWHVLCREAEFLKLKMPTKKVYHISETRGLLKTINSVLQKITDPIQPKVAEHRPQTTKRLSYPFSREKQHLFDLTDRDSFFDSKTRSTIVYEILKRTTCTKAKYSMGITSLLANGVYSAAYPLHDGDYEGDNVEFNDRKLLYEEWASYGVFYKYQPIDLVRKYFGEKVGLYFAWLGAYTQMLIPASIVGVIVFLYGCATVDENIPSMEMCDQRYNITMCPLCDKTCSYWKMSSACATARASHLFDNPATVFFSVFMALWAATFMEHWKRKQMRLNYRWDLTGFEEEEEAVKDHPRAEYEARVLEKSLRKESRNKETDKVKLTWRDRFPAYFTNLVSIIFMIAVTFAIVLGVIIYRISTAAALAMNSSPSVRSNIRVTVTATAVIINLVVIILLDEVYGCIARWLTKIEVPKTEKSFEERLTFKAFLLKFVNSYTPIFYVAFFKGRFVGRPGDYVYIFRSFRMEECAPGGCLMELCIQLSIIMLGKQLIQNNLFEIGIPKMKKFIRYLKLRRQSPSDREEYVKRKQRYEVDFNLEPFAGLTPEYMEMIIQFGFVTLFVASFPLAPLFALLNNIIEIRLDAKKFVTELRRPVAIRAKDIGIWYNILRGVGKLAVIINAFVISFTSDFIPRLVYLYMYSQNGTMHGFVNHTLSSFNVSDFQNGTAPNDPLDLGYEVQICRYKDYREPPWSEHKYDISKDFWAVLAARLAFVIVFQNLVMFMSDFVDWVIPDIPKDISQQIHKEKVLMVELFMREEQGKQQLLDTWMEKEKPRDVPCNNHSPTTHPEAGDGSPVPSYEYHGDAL
Test: Steady-state activation curve (conductance versus Vm, Boltzmann fit)
Format: cell-based
Procedure: The voltage‐dependence of TMEM16A channels was assessed by constructing conductance (G) versus V m relationships in the presence of various [Ca^2+]i. A 1 s pre‐pulse applied to different V m (from −100 to +180 mV in 40 mV increments) was followed by a 0.5 s tail pulse to −60 mV. These pulses were elicited every 2 s from a holding V m of 0 mV. Tail currents were fitted with a single exponential function and the instantaneous tail current amplitude (I tail) estimated from extrapolation of the fit to the beginning of the tail pulse. G was calculated as G = I tail/(V m − E Cl), and normalized G (G/G max) was plotted against the V m of the pre‐pulse. The G versus V m relationships were fitted with the Boltzmann equation of the following form: (5) G/Gmax=1/1+expzgV0.5−VF/RT,
where z g is the number of gating charges moving through the applied transmembrane electric field during channel activation, and V 0.5 is the voltage at which the G is half‐maximal and depends on the conformational energy required for the channel to open.
To examine the possible effects of A9C on TMEM16A channel [Ca^2+]i‐sensitivity, the conductance versus V m relationships were assessed at various [Ca^2+]i in the absence or presence of various [A9C]ext (Figure 10 and Table 3). In the absence of extracellular A9C, V 0.5 (derived from fit with Equation (5)) shifted progressively to lower values as the [Ca^2+]i was increased from 300 to 1000 nM (Table 3). Extracellular A9C dramatically shifted the steady‐state activation curves to the left (Figure 10 and Table 3) to a similar extent for all [Ca^2+]i tested.

[1] = ~300 nM [Ca2+]i, 300 μM [A9C]ext
[2] = ~300 nM [Ca2+]i, 1000 μM [A9C]ext
[3] = ~600 nM [Ca2+]i, 300 μM [A9C]ext
[4] = ~600 nM [Ca2+]i, 1000 μM [A9C]ext
[5] = ~1000 nM [Ca2+]i, 300 μM [A9C]ext
[6] = ~1000 nM [Ca2+]i, 1000 μM [A9C]ext

## O=C(O)c1c2ccccc2cc2ccccc12 [A9C, Anthracene‐9‐carboxylic acid]
[1]
  V 0.5 (Boltzmann fit): 124 ± 9 (n = 8) mV
  z g (Boltzmann fit): 0.7 ± 0.1 (n = 8)
[2]
  V 0.5 (Boltzmann fit): 89 ± 7 (n = 14) mV
  z g (Boltzmann fit): 0.7 ± 0.1 (n = 14)
[3]
  V 0.5 (Boltzmann fit): 45 ± 4 (n = 8) mV
  z g (Boltzmann fit): 0.7 ± 0.1 (n = 8)
[4]
  V 0.5 (Boltzmann fit): 18 ± 4 (n = 14) mV
  z g (Boltzmann fit): 0.7 ± 0.1 (n = 14)
[5]
  V 0.5 (Boltzmann fit): −15 ± 8 (n = 5) mV
  z g (Boltzmann fit): 0.9 ± 0.1 (n = 5)
[6]
  V 0.5 (Boltzmann fit): −22 ± 6 (n = 9) mV
  z g (Boltzmann fit): 0.9 ± 0.1 (n = 9)
